ChEMBL document CHEMBL4138316, “Optimization of Isothiazolo[4,3- b]pyridine-Based Inhibitors of Cyclin G Associated Kinase (GAK) with Broad-Spectrum Antiviral Activity” (J Med Chem, 2018)
pEC50, pKd: −log10 of the molar value. In brackets after ≈: the same amount, converted by molar mass. Activity calls are given as the source filed them. The calls are words filed in the database; no cut-off is given here.

Tests used:
[1] = tested on: Huh-7; test: Cytotoxicity against human HuH7 cells after 48 hrs by Alamar Blue assay; assay type: cell-based; settings: huh-7, 48 h
[2] = Apparent permeability cross basolateral to apical side in MDCK-MDR1 cells at 5 uM after 90 mins by LC-MS/MS analysis; assay type: ADME, cell-based, Canis lupus familiaris; settings: dog, mdck-mdr1, 1.5 h
[3] = tested on: Ebolavirus; test: Antiviral activity against Ebolavirus infected in human HuH7 cells after 48 hrs by immunofluorescence assay; assay type: functional, cell-based; settings: for EC90: Orthoebolavirus, Huh-7, 48 h
[4] = tested on: Huh-7; test: Cytotoxicity against human HuH7 cells after 48 hrs by CellTiter-Glo assay; assay type: cell-based; settings: huh-7, 48 h
[5] = Aqueous solubility in PBS buffer at pH 7.4 at 100 uM after 1 hr by LC-MS/MS analysis; assay type: physicochemical; settings: pH 7.4, 1 h
[6] = tested on: dengue virus type 2; test: Antiviral activity against DENV2 New Guinea C infected in human HuH7 cells after 48 hrs by luciferase reporter gene assay; assay type: functional, organism-based; settings: Huh-7, 48 h
[7] = Apparent permeability cross apical to basolateral side in MDCK-MDR1 cells at 5 uM after 90 mins by LC-MS/MS analysis; assay type: ADME, cell-based, Canis lupus familiaris; settings: dog, mdck-mdr1, 1.5 h
[8] = tested on: Chikungunya virus; test: Antiviral activity against Chikungunya virus AF15561 infected in African green monkey Vero cells preincubated for 48 hrs followed by viral infection measured after 48 hrs by plaque assay; assay type: functional, organism-based
[9] = target: Receptor-type tyrosine-protein kinase FLT3 (Homo sapiens) (UniProt P36888); test: Inhibition of wild-type human partial length FLT3 (V592 to Y969 residues) expressed in bacterial expression system at 10 uM by ATP-site competition binding assay based KinomeScan assay relative to control
[10] = target: Ephrin type-A receptor 7 (Homo sapiens) (UniProt Q15375); test: Inhibition of wild-type human partial length EPHA7 (Y608 to S912 residues) expressed in bacterial expression system at 10 uM by ATP-site competition binding assay based KinomeScan assay relative to control
[11] = target: T1, Cyclin-G-associated kinase (Homo sapiens, UniProt O14976)
T1 sequence (O14976 whole entry): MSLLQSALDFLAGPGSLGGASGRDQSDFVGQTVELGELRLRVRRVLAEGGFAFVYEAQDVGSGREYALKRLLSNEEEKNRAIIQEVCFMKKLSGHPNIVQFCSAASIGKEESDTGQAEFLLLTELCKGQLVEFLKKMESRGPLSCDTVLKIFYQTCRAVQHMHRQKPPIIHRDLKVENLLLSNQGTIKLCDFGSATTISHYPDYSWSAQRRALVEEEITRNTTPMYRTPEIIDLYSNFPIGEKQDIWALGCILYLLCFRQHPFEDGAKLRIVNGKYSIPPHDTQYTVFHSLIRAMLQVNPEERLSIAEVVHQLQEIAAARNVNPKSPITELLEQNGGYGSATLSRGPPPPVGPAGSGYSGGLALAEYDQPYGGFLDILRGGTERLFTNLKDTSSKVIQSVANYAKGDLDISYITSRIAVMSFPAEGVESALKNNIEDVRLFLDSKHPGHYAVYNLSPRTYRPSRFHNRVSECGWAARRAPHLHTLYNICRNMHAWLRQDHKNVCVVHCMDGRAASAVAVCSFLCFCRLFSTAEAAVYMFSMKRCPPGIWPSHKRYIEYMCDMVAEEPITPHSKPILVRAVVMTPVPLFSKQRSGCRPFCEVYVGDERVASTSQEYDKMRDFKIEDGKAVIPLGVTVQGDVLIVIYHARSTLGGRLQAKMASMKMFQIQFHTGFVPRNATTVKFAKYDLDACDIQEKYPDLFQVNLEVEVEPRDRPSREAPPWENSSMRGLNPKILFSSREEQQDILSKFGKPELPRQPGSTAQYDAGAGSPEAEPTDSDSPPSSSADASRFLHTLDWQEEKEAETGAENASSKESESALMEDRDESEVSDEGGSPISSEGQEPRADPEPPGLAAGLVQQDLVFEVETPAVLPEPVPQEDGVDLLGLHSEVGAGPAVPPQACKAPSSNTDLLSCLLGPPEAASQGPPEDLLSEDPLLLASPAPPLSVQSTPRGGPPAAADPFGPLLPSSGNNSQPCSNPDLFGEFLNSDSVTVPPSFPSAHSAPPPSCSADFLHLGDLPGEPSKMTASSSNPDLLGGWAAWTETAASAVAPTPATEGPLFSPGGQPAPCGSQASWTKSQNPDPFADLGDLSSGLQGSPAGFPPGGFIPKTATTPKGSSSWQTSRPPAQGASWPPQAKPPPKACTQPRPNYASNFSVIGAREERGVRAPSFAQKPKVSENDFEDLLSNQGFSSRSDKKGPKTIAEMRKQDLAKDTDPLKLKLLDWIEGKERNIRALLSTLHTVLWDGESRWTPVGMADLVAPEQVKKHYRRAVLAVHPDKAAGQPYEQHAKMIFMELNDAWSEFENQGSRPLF

[12] = target: Tyrosine-protein kinase ABL1 (Homo sapiens) (UniProt P00519); test: Inhibition of wild-type human non-phosphorylated ABL1 (S229 to K512 residues) expressed in mammalian expression system at 10 uM by ATP-site competition binding assay based KinomeScan assay relative to control
[13] = target: Mitogen-activated protein kinase 14 (Homo sapiens) (UniProt Q16539); test: Inhibition of wild-type human full length MAPK14 (M1 to S360 residues) expressed in bacterial expression system at 10 uM by ATP-site competition binding assay based KinomeScan assay relative to control
[14] = target: Mast/stem cell growth factor receptor Kit (Homo sapiens, UniProt P10721); test: Inhibition of wild-type human partial length KIT (I571 to D952 residues) expressed in bacterial expression system at 10 uM by ATP-site competition binding assay based KinomeScan assay relative to control
[15] = tested on: dengue virus type 2; test: Antiviral activity against DENV2 16881 infected in human MDDC after 72 hrs by plaque assay; assay type: functional, organism-based; settings: Dengue virus, 16881, 72 h
[16] = Cytotoxicity against human MDDC cells after 72 hrs by Alamar Blue assay; assay type: cell-based
[17] = target: Platelet-derived growth factor receptor beta (Homo sapiens) (UniProt P09619); test: Inhibition of wild-type human partial length PDGFRB (V582 to Y1009 residues) expressed in bacterial expression system at 10 uM by ATP-site competition binding assay based KinomeScan assay relative to control
[18] = target: T2, Dual specificity mitogen-activated protein kinase kinase 5 (Homo sapiens) (UniProt Q13163); test: Inhibition of wild-type human partial length MAP2K5 (L98 to P448 residues) expressed in mammalian expression system at 10 uM by ATP-site competition binding assay based KinomeScan assay relative to control
T2 sequence (whole entry): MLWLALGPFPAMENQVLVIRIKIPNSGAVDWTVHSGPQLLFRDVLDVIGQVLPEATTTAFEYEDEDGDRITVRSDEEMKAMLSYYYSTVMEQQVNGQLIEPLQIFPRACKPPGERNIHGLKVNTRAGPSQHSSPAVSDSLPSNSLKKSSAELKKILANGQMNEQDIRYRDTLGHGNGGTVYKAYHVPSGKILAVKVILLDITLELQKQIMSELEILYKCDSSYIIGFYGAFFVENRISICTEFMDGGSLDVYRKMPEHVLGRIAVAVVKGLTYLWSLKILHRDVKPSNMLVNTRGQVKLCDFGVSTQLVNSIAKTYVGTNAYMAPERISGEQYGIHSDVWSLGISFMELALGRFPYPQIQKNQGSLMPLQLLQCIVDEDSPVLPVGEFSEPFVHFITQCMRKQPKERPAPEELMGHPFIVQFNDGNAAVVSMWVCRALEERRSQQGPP

[19] = target: T3, Aurora kinase C (Homo sapiens) (UniProt Q9UQB9); test: Inhibition of wild-type human full length AURKC (M1 to S275 residues) expressed in bacterial expression system at 10 uM by ATP-site competition binding assay based KinomeScan assay relative to control
T3 sequence (whole entry): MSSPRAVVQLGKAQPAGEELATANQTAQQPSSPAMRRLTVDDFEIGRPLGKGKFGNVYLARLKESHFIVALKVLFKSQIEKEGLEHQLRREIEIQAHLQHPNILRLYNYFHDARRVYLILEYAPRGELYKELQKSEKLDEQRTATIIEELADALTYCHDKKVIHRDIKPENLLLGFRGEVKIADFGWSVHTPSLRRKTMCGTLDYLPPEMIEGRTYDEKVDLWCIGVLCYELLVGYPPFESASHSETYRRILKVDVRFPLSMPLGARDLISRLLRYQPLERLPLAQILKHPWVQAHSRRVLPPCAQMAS

[20] = tested on: Dengue virus; test: Antiviral activity against Dengue virus infected in doxycycline-inducible GAK (unkown origin) transfected TREx293 cells up to 20 uM after 72 hrs by luciferase reporter gene assay; assay type: functional, organism-based

Ephrin type-A receptor 7 (Homo sapiens), sequence (Q15375 28-998 limits assumed): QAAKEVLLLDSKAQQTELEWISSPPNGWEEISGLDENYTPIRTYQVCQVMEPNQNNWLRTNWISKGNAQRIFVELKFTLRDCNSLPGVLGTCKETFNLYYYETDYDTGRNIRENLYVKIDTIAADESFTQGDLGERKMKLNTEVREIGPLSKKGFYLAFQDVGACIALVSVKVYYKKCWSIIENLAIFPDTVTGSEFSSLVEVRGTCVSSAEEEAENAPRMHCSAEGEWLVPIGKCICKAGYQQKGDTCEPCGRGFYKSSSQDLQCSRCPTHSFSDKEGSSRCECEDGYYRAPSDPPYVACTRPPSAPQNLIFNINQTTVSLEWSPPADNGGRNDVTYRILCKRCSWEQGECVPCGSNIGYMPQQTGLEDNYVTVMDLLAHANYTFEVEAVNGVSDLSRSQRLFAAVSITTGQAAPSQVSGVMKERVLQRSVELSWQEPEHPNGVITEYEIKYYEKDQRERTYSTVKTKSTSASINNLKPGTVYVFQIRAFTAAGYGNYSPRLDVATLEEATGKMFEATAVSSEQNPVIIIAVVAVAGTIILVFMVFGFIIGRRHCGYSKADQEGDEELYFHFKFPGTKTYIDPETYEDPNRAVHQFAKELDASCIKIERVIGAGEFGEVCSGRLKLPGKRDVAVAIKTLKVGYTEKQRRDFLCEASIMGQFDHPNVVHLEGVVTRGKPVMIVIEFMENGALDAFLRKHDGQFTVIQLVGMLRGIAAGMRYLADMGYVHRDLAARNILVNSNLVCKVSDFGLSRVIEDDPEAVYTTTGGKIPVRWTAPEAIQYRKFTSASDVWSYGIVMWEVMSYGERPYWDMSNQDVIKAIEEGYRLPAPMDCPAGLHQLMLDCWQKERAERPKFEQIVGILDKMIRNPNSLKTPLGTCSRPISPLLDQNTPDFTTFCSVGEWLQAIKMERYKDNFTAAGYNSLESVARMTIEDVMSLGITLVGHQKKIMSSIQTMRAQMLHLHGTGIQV
Platelet-derived growth factor receptor beta (Homo sapiens), sequence (P09619 whole entry, the tested form may be a part): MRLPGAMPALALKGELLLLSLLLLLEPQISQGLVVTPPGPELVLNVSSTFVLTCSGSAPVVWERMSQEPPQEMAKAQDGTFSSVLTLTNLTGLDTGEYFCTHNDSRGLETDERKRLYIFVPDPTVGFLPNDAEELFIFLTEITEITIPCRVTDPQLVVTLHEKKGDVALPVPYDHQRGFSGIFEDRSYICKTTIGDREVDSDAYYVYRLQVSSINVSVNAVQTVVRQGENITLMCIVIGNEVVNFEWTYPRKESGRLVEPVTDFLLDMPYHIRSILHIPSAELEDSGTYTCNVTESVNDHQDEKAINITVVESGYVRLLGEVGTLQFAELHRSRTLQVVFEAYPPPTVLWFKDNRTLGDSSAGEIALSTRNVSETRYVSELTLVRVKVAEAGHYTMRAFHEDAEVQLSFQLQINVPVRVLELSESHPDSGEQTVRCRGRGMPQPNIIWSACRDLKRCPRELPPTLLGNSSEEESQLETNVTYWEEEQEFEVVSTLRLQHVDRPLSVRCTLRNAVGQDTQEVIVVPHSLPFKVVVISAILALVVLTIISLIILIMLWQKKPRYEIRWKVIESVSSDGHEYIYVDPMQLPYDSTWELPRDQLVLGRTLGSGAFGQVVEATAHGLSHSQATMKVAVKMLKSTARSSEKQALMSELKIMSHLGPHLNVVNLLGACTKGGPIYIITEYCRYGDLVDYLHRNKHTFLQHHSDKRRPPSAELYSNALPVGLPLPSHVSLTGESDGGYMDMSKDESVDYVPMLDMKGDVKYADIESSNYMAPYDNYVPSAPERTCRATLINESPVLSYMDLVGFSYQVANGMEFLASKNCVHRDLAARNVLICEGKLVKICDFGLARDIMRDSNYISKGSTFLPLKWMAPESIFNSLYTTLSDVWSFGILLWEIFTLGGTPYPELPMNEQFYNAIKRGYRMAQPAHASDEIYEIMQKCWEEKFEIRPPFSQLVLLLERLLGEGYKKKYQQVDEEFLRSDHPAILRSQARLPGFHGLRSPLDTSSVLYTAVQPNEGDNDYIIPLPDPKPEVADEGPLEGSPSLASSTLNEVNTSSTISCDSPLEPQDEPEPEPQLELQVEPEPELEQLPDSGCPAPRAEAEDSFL
Tyrosine-protein kinase ABL1 (Homo sapiens), sequence (P00519 whole entry, the tested form may be a part): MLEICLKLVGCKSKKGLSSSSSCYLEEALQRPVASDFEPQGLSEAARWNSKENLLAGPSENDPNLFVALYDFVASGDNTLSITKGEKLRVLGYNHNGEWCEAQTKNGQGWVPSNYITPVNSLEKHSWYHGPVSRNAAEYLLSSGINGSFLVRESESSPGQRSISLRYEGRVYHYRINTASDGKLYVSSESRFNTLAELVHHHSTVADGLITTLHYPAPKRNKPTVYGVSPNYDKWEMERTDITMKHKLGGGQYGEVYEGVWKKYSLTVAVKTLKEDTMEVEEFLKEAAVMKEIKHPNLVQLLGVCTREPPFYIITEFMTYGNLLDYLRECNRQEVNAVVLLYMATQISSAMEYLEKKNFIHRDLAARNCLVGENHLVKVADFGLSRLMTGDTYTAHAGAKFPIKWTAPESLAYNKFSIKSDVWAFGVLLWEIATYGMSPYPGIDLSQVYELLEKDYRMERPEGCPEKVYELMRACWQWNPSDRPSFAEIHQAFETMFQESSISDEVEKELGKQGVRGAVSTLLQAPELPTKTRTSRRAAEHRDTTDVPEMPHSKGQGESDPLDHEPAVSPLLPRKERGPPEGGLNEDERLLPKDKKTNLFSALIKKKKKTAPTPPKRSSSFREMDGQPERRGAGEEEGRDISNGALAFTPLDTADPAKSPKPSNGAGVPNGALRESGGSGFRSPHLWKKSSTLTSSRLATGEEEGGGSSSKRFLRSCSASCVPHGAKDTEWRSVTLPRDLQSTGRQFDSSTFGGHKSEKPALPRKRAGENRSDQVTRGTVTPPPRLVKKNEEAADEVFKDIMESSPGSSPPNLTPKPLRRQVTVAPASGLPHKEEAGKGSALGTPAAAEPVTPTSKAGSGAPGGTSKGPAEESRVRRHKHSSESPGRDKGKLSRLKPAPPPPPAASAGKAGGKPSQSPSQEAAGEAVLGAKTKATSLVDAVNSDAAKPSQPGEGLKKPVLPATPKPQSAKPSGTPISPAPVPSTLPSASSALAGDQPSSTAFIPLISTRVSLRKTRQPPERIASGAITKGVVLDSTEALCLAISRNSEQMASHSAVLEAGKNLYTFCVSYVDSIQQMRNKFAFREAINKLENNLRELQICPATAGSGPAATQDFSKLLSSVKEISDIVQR
Receptor-type tyrosine-protein kinase FLT3 (Homo sapiens), sequence (P36888 whole entry, the tested form may be a part): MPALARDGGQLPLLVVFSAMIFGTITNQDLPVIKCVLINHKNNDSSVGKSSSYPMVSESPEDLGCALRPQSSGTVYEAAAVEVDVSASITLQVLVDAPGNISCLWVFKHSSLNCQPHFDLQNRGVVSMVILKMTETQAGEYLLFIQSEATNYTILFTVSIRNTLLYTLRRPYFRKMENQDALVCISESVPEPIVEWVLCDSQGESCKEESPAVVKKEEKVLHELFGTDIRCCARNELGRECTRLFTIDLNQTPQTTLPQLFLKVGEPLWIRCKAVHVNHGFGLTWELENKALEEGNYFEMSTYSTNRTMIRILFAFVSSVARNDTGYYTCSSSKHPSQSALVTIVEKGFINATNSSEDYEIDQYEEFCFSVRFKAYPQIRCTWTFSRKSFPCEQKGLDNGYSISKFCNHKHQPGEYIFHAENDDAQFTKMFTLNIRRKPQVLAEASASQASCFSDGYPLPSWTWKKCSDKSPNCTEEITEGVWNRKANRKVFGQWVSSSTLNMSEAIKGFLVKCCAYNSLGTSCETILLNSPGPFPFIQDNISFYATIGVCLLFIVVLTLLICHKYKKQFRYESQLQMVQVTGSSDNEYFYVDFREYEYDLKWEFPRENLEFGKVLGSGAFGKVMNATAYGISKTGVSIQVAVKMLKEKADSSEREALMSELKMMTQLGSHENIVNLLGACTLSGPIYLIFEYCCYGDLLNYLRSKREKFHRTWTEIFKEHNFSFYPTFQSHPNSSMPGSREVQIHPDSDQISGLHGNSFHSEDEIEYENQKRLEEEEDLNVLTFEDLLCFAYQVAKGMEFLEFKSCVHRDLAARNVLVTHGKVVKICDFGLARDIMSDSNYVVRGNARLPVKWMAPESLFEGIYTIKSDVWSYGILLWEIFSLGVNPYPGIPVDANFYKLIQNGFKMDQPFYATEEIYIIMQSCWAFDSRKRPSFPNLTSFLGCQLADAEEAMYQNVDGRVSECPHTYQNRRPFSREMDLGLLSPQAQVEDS
Mitogen-activated protein kinase 14 (Homo sapiens), sequence (Q16539 whole entry, the tested form may be a part): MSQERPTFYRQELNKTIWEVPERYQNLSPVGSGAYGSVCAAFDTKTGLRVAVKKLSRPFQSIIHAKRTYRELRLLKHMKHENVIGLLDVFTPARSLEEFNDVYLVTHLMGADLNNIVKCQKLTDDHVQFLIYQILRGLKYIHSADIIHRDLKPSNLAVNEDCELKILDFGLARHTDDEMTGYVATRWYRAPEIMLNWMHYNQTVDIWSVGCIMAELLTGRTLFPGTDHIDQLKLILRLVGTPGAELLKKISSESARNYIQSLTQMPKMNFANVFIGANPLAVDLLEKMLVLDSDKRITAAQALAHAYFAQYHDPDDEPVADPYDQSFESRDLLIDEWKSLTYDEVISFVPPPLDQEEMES

SMILES: COc1cc(-c2cnc3c(N4CCS(=O)(=O)CC4)snc3c2)ccc1N
- CC50 [1]: > 10 µM

SMILES: COc1cc(-c2cnc3c(N4CCOCC4)snc3c2)ccc1N
- Papp [2]: 308 nm/s
- EC90 [3]: 21.9 µM
- CC50 [4]: 11 µM
- solubility [5]: 3.44 µM (≈ 1.18 µg/mL)
- pEC50 [6]: 5.73
- EC90 [6]: 8.05 µM
- Papp [7]: 454.5 nm/s

SMILES: COc1cc(-c2cnc3c(N4C[C@@H](C)O[C@@H](C)C4)snc3c2)ccc1N
- Activity [8]: Dose-dependent effect
- inhibition [9]: > 90%
- inhibition [10]: > 90%
- pKd [11]: 7.05
- CC50 [1]: > 25 µM
- inhibition [12]: > 90%
- Papp [2]: 182.8 nm/s
- inhibition [13]: > 90%
- EC90 [3]: 7.73 µM
- CC50 [4]: > 10 µM
- inhibition [14]: > 90%
- pEC50 [15]: 5.45
- CC50 [16]: > 20 µM
- inhibition [17]: > 90%
- solubility [5]: 0.52 µM (≈ 0.193 µg/mL)
- inhibition [18]: > 90%
- inhibition [19]: > 90%
- Activity [20]: inactive
- pEC50 [6]: 6.09
- EC90 [6]: 1.76 µM
- Papp [7]: 313.3 nm/s

SMILES: COc1cc(-c2cnc3c(N4CCO[C@H](C)C4)snc3c2)ccc1N
- CC50 [1]: 20.7 µM
- Activity [3]: Dose-dependent effect
- CC50 [4]: > 10 µM

SMILES: COc1cc(-c2cnc3c(NC4CCOCC4)snc3c2)ccc1N
- CC50 [1]: > 20 µM

SMILES: COc1cc(-c2cnc3c(N4CCNC(=O)C4)snc3c2)ccc1N
- CC50 [1]: > 10 µM
- Papp [2]: 434.8 nm/s
- solubility [5]: 51.3 µM (≈ 18.2 µg/mL)
- Papp [7]: 303.2 nm/s

SMILES: COc1cc(-c2cnc3c(N4CC5CCC(C4)O5)snc3c2)ccc1N
- CC50 [1]: > 10 µM

SMILES: COc1cc(-c2cnc3c(N4CCO[C@@H](C)C4)snc3c2)ccc1N
- CC50 [1]: > 25 µM
- Activity [3]: Dose-dependent effect

SMILES: COc1cc(-c2cnc3c(N4CCOC[C@@H]4C)snc3c2)ccc1N
- CC50 [1]: 6.32 µM

SMILES: COc1cc(-c2cnc3c(N4CCCCC4)snc3c2)ccc1N
- CC50 [1]: > 10 µM

SMILES: COc1cc(-c2cnc3c(N4CCC(C#N)CC4)snc3c2)ccc1N
- CC50 [1]: 2.09 µM

SMILES: COc1cc(-c2cnc3c(N4CCCOCC4)snc3c2)ccc1N
- CC50 [1]: > 10 µM

SMILES: COc1cc(-c2cnc3c(N4CCOC(C)(C)C4)snc3c2)ccc1N
- CC50 [1]: 4.14 µM

SMILES: COc1cc(-c2cnc3c(N4CCOC[C@H]4C)snc3c2)ccc1N
- CC50 [1]: > 10 µM

SMILES: COCCc1ccc(OCC(O)CNC(C)C)cc1 (stereo not drawn) [METOPROLOL]
- Papp [2]: 306.6 nm/s
- Papp [7]: 392.9 nm/s

SMILES: COc1cc(-c2cnc3c(N4CCC(C(N)=O)CC4)snc3c2)ccc1N
- CC50 [1]: > 10 µM

SMILES: COc1cc(-c2cnc3c(N4CC5(COC5)C4)snc3c2)ccc1N
- pKd [11]: 6.77
- CC50 [1]: > 10 µM
- pEC50 [6]: 5.15
- EC90 [6]: > 10 µM

SMILES: CC(C)NCC(O)COc1cccc2ccccc12 (stereo not drawn) [PROPRANOLOL]
- solubility [5]: 117 µM (≈ 30.3 µg/mL)

SMILES: COc1cc(-c2cnc3c(N4C[C@@H](C)O[C@H](C)C4)snc3c2)ccc1N (relative stereo)
- CC50 [1]: > 10 µM
- pEC50 [6]: 6.15
- EC90 [6]: 2.15 µM

SMILES: COc1cc(-c2cnc3c(N4CCC(N)CC4)snc3c2)ccc1N
- CC50 [1]: > 10 µM

SMILES: COc1cc(-c2cnc3c(N4CCCC(C(N)=O)C4)snc3c2)ccc1N (stereo not drawn)
- CC50 [1]: > 10 µM

SMILES: COc1cc(-c2cnc3c(N4CCC(F)(F)CC4)snc3c2)ccc1N
- CC50 [1]: > 10 µM

SMILES: COc1cc(-c2cnc3c(N4CCOC(C)C4)snc3c2)ccc1N (racemic)
- CC50 [1]: 21.5 µM
- Activity [3]: Dose-dependent effect
- CC50 [4]: 9.4 µM
